The test has as its system Human Umbilical Vein Endothelial cells (VEGF-stimulated). The experiment in a line: HUVEC proliferation assay, VEGF-stimulated. Particulars: VEGF 50 ng/mL, 72 h, CyQuant, read-out: inhibited VEGF-stimulated HUVEC proliferation at a level. The format is cell-based. Summed up:
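Pooled-donor HUVECs (passage 2–3) seeded in DMEM+10% FBS for 22 h, then pre-treated 2–3 h with five-point, five-fold compound dilutions (0.25% DMSO final). Stimulated with 50 ng/mL VEGF (bFGF 20 ng/mL on separate plates) for 72 h at 37 °C. CyQuant fluorescence (485/530 nm) after freeze-thaw; IC50 from 4-parameter fit.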
For the molecule `O=C(Nc1cccc(C(F)(F)F)c1)c1cccnc1NCc1ccncc1` [Example 82, 2-[(Pyridin-4-ylmethyl)-amino]-N-(3-trifluoromethyl-phenyl)-nicotinamide], the IC50 was under 50 nM. On to `O=C(Nc1ccc(C(F)(F)F)c(OCCN2CCCC2)c1)c1cccnc1NCc1ccncn1` [Example 1024, 2-((4-Pyrimidinylmethyl)amino)-N-(3-((2-(1-pyrrolidinyl)ethyl)oxy)-4-(trifluoromethyl)phenyl)-3-pyridinecarboxamide], for which the IC50 was under 50 nM. As for `CNc1nccc(CNc2ncccc2C(=O)Nc2ccc3c(c2)N(C(C)=O)CC3(C)C)n1` [Example 1045, N-(1-acetyl-3,3-dimethyl-2,3-dihydro-1H-indol-6-yl)-2-(((2-(methylamino)-4-pyrimidinyl)methyl)amino)-3-pyridinecarboxamide], the IC50 was under 50 nM.

For the molecule `O=C(Nc1ccc(Oc2ccccc2)cc1)c1cccnc1NCc1ccncc1` [Example 158, N-(4-Phenoxyphenyl){2-[(4-pyridylmethyl)amino](3-pyridyl)}carboxamide], the IC50 is under 50 nM. For `O=C(Nc1cccc(C(F)(F)F)c1)c1ccc(F)nc1NCc1ccncc1` [Example 156, {6-Fluoro-2-[(4-pyridylmethyl)amino](3-pyridyl)}-N-[3-(trifluoromethyl)phenyl]carboxamide] the value was under 50 nM; for `CNc1nccc(CNc2ncccc2C(=O)Nc2ccc3c(n2)NC(=O)CC3(C)C)n1` [Example 1135, N-(5,5-Dimethyl-7-oxo-5,6,7,8-tetrahydro-[1,8]naphthyridin-2-yl)-2-[(2-methylamino-pyrimidin-4-ylmethyl)-amino]-nicotinamide], under 50 nM; for `CNc1cc(CNc2ncccc2C(=O)Nc2ccc3c(c2)NC(=O)CC3(C)C)ccn1` [Example 1119, N-(4,4-Dimethyl-2-oxo-1,2,3,4-tetrahydro-quinolin-7-yl)-2-[(2-methylamino-pyridin-4-ylmethyl)-amino]-nicotinamide], under 50 nM. On to `CC(C)N1CCC[C@H]1COc1cc(NC(=O)c2cccnc2NCc2ccncc2)cc(C(F)(F)F)c1` [Example 1096, N-(3-((((2S)-1-(1-methylethyl)-2-pyrrolidinyl)methyl)oxy)-5-(trifluoromethyl)phenyl)-2-((4-pyridinylmethyl)amino)-3-pyridinecarboxamide], for which the IC50 is under 50 nM.

Values taken from patent US7687643B2, “Process for preparing 3,3-dimethylindolines” (Amgen Inc., priority 2001, dated 2010).
